Reference: patent US11771685B2, “Compounds for the treatment of neurological or mitochondrial diseases” (MUSC FOUNDATION FOR RESEARCH DEVELOPMENT, priority 2018, dated 2023)
Where two headings read alike, the source gives them in different places.

How the values were obtained:
[1] = Clinical observations in dosed mice; format: in vivo
Experimental: (§1) PK studies on 3 and 25 were carried out in CD-1 mice. Three males were dosed via oral gavage needle for oral administration at 20 mg/kg (10 mL/kg) or via intravenous administration at 5 mg/kg (10 mL/kg). Blood samples were taken at time intervals between 5 min and 24 hr from each animal.
PO PK experiments were repeated for 25, with oral dosing at 20 mg/kg and 10 mL/kg of a suspension with 1% Tween 80:1% carboxymethylcellulose in water.
Table 2 provides a summary of efficacy studies in vivo in mice, and in rat brain slices, using the 5% DMSO:95% Neobee formulation.

[2] = tested on: PTZ-induced seizure activity in zebrafish larvae; assay: Zebrafish PTZ-induced seizure model; format: in vivo; settings: for minimal effective concentration: 1 hr pre-treatment, 10 mM PTZ, read-out: Anti-seizure activity: lowest tested dose with significant difference vs PTZ-only group
Experimental: The zebrafish PTZ-induced seizure model was used to determine the most promising compounds' in vivo efficacy. Zebrafish larvae (7 dpf) were treated with the compound for 1 hr prior to inducing seizures with PTZ. As established by previous larval zebrafish anti-seizure studies (Rahn et al., 2014; Hansen et al., 2004; Baraban et al., 2005), total distance traveled by each fish after seizure induction was measured and used as a proxy for seizure activity. Following collection of locomotor data, observation of a startle response and visual inspection for abnormal morphology confirmed that alterations in swim activity were not caused by compound toxicity.
We induced seizures in 7 dpf zebrafish larvae by the addition of […] PTZ as originally developed by Baraban et al., 2005. In a 48-well plate, one 7-dpf zebrafish was added per well. Larvae were dosed with each compound at a sub-lethal dose 1 hr prior to PTZ treatment. Two control rows were included with each experiment—tank water only control and PTZ only. Seizures were induced by adding PTZ to wells to yield a final concentration of 10 mM. After 5 min, the plate was transferred to the Daniovision instrument (Noldus Information Technology) and the chamber light was turned on. After 2 min, MediaRecorder (Noldus) was used to record video for 15 min. A small number of videos were acquired at 25 frames per second, but the majority of data were acquired at 60 frames per second. […] Ethovision XT software (Noldus) was used to track the fish movement from the video images in order to calculate the total distance traveled over 15 min. All experimental comparisons were made between animals from the same clutch.
Statistical analyses were performed with GraphPad Prism 6 software. For the in vitro HT22 oxytosis assay, dose-response data were fit using GraphPad Prism's log(inhibitor) vs normalized response-variable slope parameters to determine EC50 values and 95% confidence intervals. For the zebrafish locomotive anti-seizure activity data, multiple comparisons were made using a one-way analysis of variance (ANOVA) with a Kruskal-Wallis Test, followed by the Dunn's Method to determine significant differences between all pairs or between control and experimental groups using the Dunn Method for Joint Ranking. Differences were considered statistically significant when p<0.05. Data from zebrafish experiments are represented as scatter dot plots of individual measurements, with means±standard deviation indicated by bars.

[3] = In vivo pharmacokinetics in CD-1 mice; set-up: species or system mouse; settings: for Vd: read-out: Vss
Experimental: as §1
The PK studies of 1 were performed by WuXi AppTec and PK studies of 3 and 25 were performed by Touchstone Biosciences (Peng et al., 2006b; Peng et al., 2001; Peng et al., 2006a; Peng et al., 2009). Male CD-1 mice were fed a standard laboratory rodent diet and housed in individual cages on a 12 hr light and 12 hr dark cycle with room temperature maintained at 22±3° C. and relative humidity at 50±20%. Animals were typically fasted overnight before dosing, with food returned after the 6 hr blood samples were obtained. Water was provided ad libitum throughout the study. The dosing solution of each test compound was prepared in a desired oral or intravenous formulation. Three to four animals were dosed via gavage needle for oral administration at 10-20 mg/kg (10-20 mL/kg) or via tail vein injection for IV administration at 2-5 mg/kg (2-5 mL/kg). […] Fluid replacement (1.5 mL of 0.9% NaCl injection, USP) was administered subcutaneously once after the 2 hr blood sampling. Blood samples were collected in BD Microtainer tubes coated with anticoagulant, placed on ice, and within 30 min, centrifuged at 15,000 g for 5 min to obtain plasma samples. All plasma samples were stored at −70° C. until analysis.
Plasma samples were prepared as follows. Three volumes of acetonitrile containing internal standard was added to one volume of plasma to precipitate proteins. Samples were centrifuged (3000 g for 10 min) and supernatant removed for analysis by LC-MS/MS. Calibration standards and quality controls were made by preparation of a 1 mg/mL stock solution and subsequently a series of working solutions in methanol:water (1:1, v/v) which were spiked into blank plasma to yield a series of calibration standard samples in the range of 1.0 ng/mL to 10 μg/mL and quality control samples at three concentration levels (low, middle and high). All incurred PK/PD plasma samples were treated identically to the calibration standards and quality control samples. LC-MS-MS analysis was performed utilizing multiple reaction monitoring for detection of characteristic ions for each drug candidate, additional related analytes and internal standard.
Plasma concentrations were measured as described above to determine a concentration vs. time profile. The area under the plasma concentration vs time curve (AUC) was calculated using the linear trapezoidal method. Fitting of the data to obtain pharmacokinetic parameters was carried out using non-compartmental analysis. Key PK parameters reported following intravenous administration are as follows: terminal half-life t1/2, initial plasma concentration C0, area under the plasma concentration vs. time curve AUC, volume of distribution at steady-state Vss, total plasma clearance CLp, and mean residence time MRT. Key PK parameters reported following extravascular administration are as follows: terminal half-life t1/2, maximum plasma concentration Cmax, time to reach maximum plasma concentration tmax, area under the plasma concentration vs. time curve AUC, mean residence time MRT, and bioavailability F. All parameters are expressed for individual animals as well as mean, standard deviation, and coefficient of variation.

[4] = intraperitoneal 20 mg/kg, 5% DMSO: 95% neobee
[5] = intravenous 5 mg/kg, 20% DMA: 40% PEG300: 40% H2O
[6] = male, CD-1, mouse, plasma, iv, 5 mg/kg, intravenous 5 mg/kg, 20% DMA: 40% PEG300: 40% H2O
[7] = male, CD-1, mouse, plasma, po, 20 mg/kg, oral 20 mg/kg, 5% DMSO: 95% Neobee
[8] = oral 20 mg/kg, 5% DMSO: 95% Neobee
[9] = intravenous, 3 and 25 at 5 mg/kg, 5 mg/kg
[10] = male, CD-1, mouse, plasma, iv, 5 mg/kg, 3 and 25 at 5 mg/kg
[11] = male, CD-1, mouse, plasma, po, 20 mg/kg, oral 20 mg/kg, 20% DMA-40% PEG300-40% H2O
[12] = male, CD-1, mouse, plasma, po, 20 mg/kg, oral 20 mg/kg, suspension 1% Tween 80:1% carboxymethylcellulose in water
[13] = oral 20 mg/kg, 20% DMA-40% PEG300-40% H2O

For `CC(C)CCNC1=CC(=O)c2ccccc2C1=O` [Compound 17, 2-(Isopentylamino)naphthalene-1,4-dione], which pigmented urine ([1]; efficacy studies, 5% DMSO:95% Neobee formulation) is on record?
Its pigmented urine is “Pigmented urine was not seen”.

What about the minimal effective concentration ([2]; Danio rerio, 7 dpf larvae) of the same compound?
The minimal effective concentration was 5 µM.

And the T1/2 [3, 4]?
The T1/2 was 3.38 h.

And the tlast [3, 4]?
The tlast was 24 h.

And the Clast [3, 5]?
The Clast was 0.154 ng/mL.

And the T1/2 [3, 5]?
Its T1/2 is 4.47 h.

And the AUC(0-t) ([3]; male, CD-1, mouse, plasma, ip, 20 mg/kg, intraperitoneal 20 mg/kg, 5% DMSO: 95% neobee)?
Its AUC(0-t) is 1720 ng·h/mL.

And the AUC(0-inf) [3, 6]?
Its AUC(0-inf) is 637 ng·h/mL.

And the MRT inf [3, 6]?
The MRT inf was 0.874 h.

And the clearance ([3]; male, CD-1, mouse, plasma, iv, 5 mg/kg, intravenous 5 mg/kg, 20% DMA: 40% PEG300: 40% H2O, read-out: CLp)?
Its clearance is 131 mL/min/kg.

What about the Vd [3, 6] of the same compound?
The Vd was 6.89 L/kg.

And the AUC(0-inf) [3, 7]?
Its AUC(0-inf) is 914 ng·h/mL.

And the MRT inf [3, 7]?
Its MRT inf is 2.5 h.

And the Tmax [3, 7]?
Its Tmax is 15 min.

What about the concentration at 24 hr ([3]; male, CD-1, mouse, plasma, intraperitoneal 20 mg/kg, 5% DMSO: 95% neobee, read-out: Clast) of the same compound?
Its concentration at 24 hr is 1.95 ng/mL.

What about the C0 ([3]; male, CD-1, mouse, plasma, intravenous 5 mg/kg, 20% DMA: 40% PEG300: 40% H2O) of the same compound?
The C0 was 1910 ng/mL.

And the concentration at 24 hr ([3]; male, CD-1, mouse, plasma, oral 20 mg/kg, 5% DMSO: 95% Neobee, read-out: Clast)?
The concentration at 24 hr was 1.43 ng/mL.

What about the Cmax [3, 8] of the same compound?
The Cmax was 1025 ng/mL.

What about the F [3, 8] of the same compound?
Its F is 35.9%.

What about the t1/2 [3, 8] of the same compound?
Its t1/2 is 5.28 h.

And the tlast [3, 8]?
Its tlast is 24 h.

Which results are given for `CC(C)CCOC1=CC(=O)c2ccccc2C1=O` [Compound 25, 2-(Isopentyloxy)naphthalene-1,4-dione]?
clinical symptoms during the IV study ([1]; intravenous 5 mg/kg, CD-1 mice): no abnormal clinical symptoms; clinical symptoms after oral dosing ([1]; oral 20 mg/kg, suspension 1% Tween 80:1% carboxymethylcellulose in water): No abnormal clinical symptoms; anti-seizure activity ([2]; 7 dpf larvae, PTZ): decrease seizures in a zebrafish model of epilepsy in a dose-dependent manner; minimal effective concentration ([2]; Danio rerio, 7 dpf larvae): ≤ 5 µM; inhibition in vivo at 2.5 µM ([2]; Danio rerio, 2.5 μM, read-out: reduction of PTZ-induced locomotor activity): 45%; AUCinf/D ([3]; intravenous, 5 mg/kg): 242 h·(ng/mL)/(mg/kg); tlast ([3]; intravenous, 5 mg/kg): 24 h; CL [3, 9]: 69 mL/min/kg; Vss [3, 9]: 13 L/kg; clearance ([3]; male, CD-1, mouse, plasma, iv, 5 mg/kg, intravenous, 3 and 25 at 5 mg/kg, read-out: CL): 68.8 mL/min/kg; Vd ([3]; male, CD-1, mouse, plasma, iv, 5 mg/kg, intravenous, 3 and 25 at 5 mg/kg): 13.2 L/kg; AUC(0-inf) [3, 10]: 1210 ng·h/mL; AUC(0-t) [3, 10]: 1200 ng·h/mL; MRT inf [3, 10]: 3.2 h; half-life [3, 10]: 259 min; AUC(0-inf) [3, 11]: 11500 ng·h/mL; AUC(0-t) [3, 11]: 7360 ng·h/mL; MRT inf [3, 11]: 7.84 h; Tmax [3, 11]: 20 min; half-life [3, 11]: 334 min; Cmax ([3]; male, CD-1, mouse, plasma, po, 20 mg/kg, oral 20 mg/kg, 20% DMA-40% PEG300-40% H2O, read-out: Cmax): 2080 ng/mL; AUC(0-inf) [3, 12]: 1950 ng·h/mL; half-life [3, 12]: 209 min; Cmax ([3]; male, CD-1, mouse, plasma, po, 20 mg/kg, oral 20 mg/kg, suspension 1% Tween 80:1% carboxymethylcellulose in water, read-out: Cmax): 282 ng/mL; bioavailability ([3]; male, CD-1, mouse, plasma, po, 20 mg/kg, oral 20 mg/kg, suspension 1% Tween 80:1% carboxymethylcellulose in water, read-out: oral bioavailability (F)): 40.3%; concentration at 24 hr ([3]; male, CD-1, mouse, plasma, intravenous, 5 mg/kg, read-out: Clast): 2.26 ng/mL; C0 ([3]; male, CD-1, mouse, plasma, intravenous, 3 and 25 at 5 mg/kg): 1600 ng/mL; concentration at 8 hr ([3]; male, CD-1, mouse, plasma, oral 20 mg/kg, 20% DMA-40% PEG300-40% H2O, 8 hr post-dose, read-out: Clast): 531 ng/mL; decrease of Cmax and AUC, suspension vs solution formulation ([3]; oral 20 mg/kg): 6-7 fold; AUCinf/D [3, 13]: 576 h·(ng/mL)/(mg/kg); Cmax/D [3, 13]: 104 (ng/mL)/(mg/kg); tlast [3, 13]: 8 h; T1/2 ([3]; oral 20 mg/kg, 20% DMA-40% PEG300-40% H2O, 20 mg/kg): 5.6 h; oral bioavailability (F) ([3]; oral 20 mg/kg, suspension 1% Tween 80:1% carboxymethylcellulose in water, 20 mg/kg): 40%
